Assays:
AML and high-risk MDS = assay: Ongoing Phase 1 study in relapsed/refractory AML and high-risk MDS; assay type: in vivo, human patients; conditions: patients with relapsed/refractory AML and high-risk MDS
Procedure: To support the development of effective treatment regimens with Compound 1, a study was conducted to monitor bone marrow (BM) samples obtained from AML and high risk MDS patients with different prior histories of treatment. […]
• MTD (defined as the highest dose at which there is <33% dose-limiting toxicity rate in the first cycle of treatment in a minimum of 6 patients [time frame: 28 days]) • RP2D (determined by the Sponsor in consultation with the CSC, considering all aspects of safety, tolerability, biologic activity, pharmacokinetic and preliminary efficacy in the trial population [time frame: 24 months]) • Safety measured by adverse events, ECGs, chemistry and hematology laboratory values, vital signs, and physical examinations […]
• Pharmacokinetic parameters of Compound 1 measured by Cmax, Cmin, Tmax, AUC0-24, AUC0-inf, and T1/2 (time frame 24 months) • Clinical response in AML or hrMDS assessed as follows: • AML: • Proportion of patients who reach CR+CRh • Proportion of patients who reach CRi, or CR or CRh • hrMDS: overall response rate of CR+PR+mCR • Transfusion independence […]

bone marrow (BM) blasts = assay: Clinical study of change in bone marrow blasts, BLC2 inhibitor naive vs prior-exposed patients; assay type: in vivo, human patients
Description: FIG. 1A is a graph showing the results of a clinical study for the efficacy of emavusertib (Compound 1) administration on reducing bone marrow (BM) blasts in patients with blood cancer. Blasts are immature white blood cells that are usually found in small numbers in healthy bone marrow. High levels of blasts circulating in the blood are associated with cancer. This clinical study measured the change in blast levels before and after receiving Compound 1 treatment. Here, the relative change in blast levels before and after Compound 1 is compared between patients who had previously received BLC2 inhibitors in prior treatment and patients who were naïve to BLC2 inhibitors. The comparison groups each contain 22 high risk myelodysplastic syndrome (hrMDS) patients and 10 acute myeloid leukemia (AML) patients.
FIG. 1B is a graph showing baseline and best post-treatment blast levels of the subjects in FIG. 1A. […] Each patient is shaded according to their diagnosis, with high-risk myelodysplastic syndrome (MDS) patients tending to have lower blast levels than acute myeloid leukemia (AML) patients.
To support the development of effective treatment regimens with Compound 1, a study was conducted to monitor bone marrow (BM) samples obtained from AML and high risk MDS patients with different prior histories of treatment.
• Pharmacokinetic parameters of Compound 1 measured by Cmax, Cmin, Tmax, AUC0-24, AUC0-inf, and T1/2 (time frame 24 months) • Clinical response in AML or hrMDS assessed as follows: • AML: • Proportion of patients who reach CR+CRh • Proportion of patients who reach CRi, or CR or CRh • hrMDS: overall response rate of CR+PR+mCR • Transfusion independence
This is a Phase 1, open-label dose escalation and cohort expansion study of Compound 1 as a monotherapy in patients with AML or MDS and in combination with AZA in treatment-naïve, adult patients with AML or hrMDS, after first line therapy.

[1] = Study Compound 1-101 (safety, exposure, activity at 200 mg BID); assay type: in vivo
Description: Three patients with AML or MDS will be enrolled at the designated dose. If none of the first 3 patients experience a dose-limiting toxicity during the first cycle, patients may be enrolled into the next higher dose level. If 1 patient out of the first 3 experiences a dose-limiting toxicity, the dose level may be expanded with an additional 3 patients.

Cc1cc(-c2nc(C(=O)Nc3cc4oc(N5CCOCC5)nc4nc3N3CC[C@@H](O)C3)co2)ccn1 [Compound 1]
clinical activity (AML and high-risk MDS): demonstrated clinical activity
rate of response to Compound 1, as evidenced by reduced BM blast counts (bone marrow (BM) blasts; AML and high risk MDS, no history of BLC2 inhibitor treatment vs prior exposure): higher rate of response to Compound 1, as evidenced by reduced BM blast counts in hematology, compared to patients who had prior exposure to a BLC2 inhibitor
decrease in bone marrow blast counts from baseline to best post-baseline (bone marrow (BM) blasts; no prior vs prior BLC2 inhibitor exposure, hrMDS and AML patients, FIG. 1B): significantly higher decreases in bone marrow blast counts from baseline to best post-baseline compared to those subjects with prior BLC2 inhibitor exposure
relative change in bone marrow blast levels before and after Compound 1 (bone marrow (BM) blasts; patients naive to BLC2 inhibitors (e.g., venetoclax) vs previously exposed, comparison groups each 22 hrMDS and 10 AML, FIG. 1A): significant reduction in blasts compared to those who had been previously exposed to BLC2 inhibitors
biologic activity and clinical efficacy [1]: demonstrating signs of biologic activity and clinical efficacy
drug exposure [1]: capable of achieving relevant levels of drug exposure
safety of starting dose [1]: safe
